Measurements as given in US20210346411A1 (priority 2020, published 2021).
Entries after “also recorded” stand apart in the source; their conditions may differ.

Legend:
[1] = test system: SARS-CoV-2 (2019-nCoV) virus (nCoV-2019BetaCoV/Wuhan/WIV04/2019 strain); assay: Reduction of viral nucleic acid load of Vero E6 cells infected by SARS-CoV-2 (qRT-PCR of supernatant); format: cell-based; parameters: Virus genome copy number: unit not given here; conditions: for Virus genome copy number: 48 h, Vero E6, 100TCID50, supernatant
[2] = test system: Vero E6 cells; assay: Cytotoxicity test of drug (CCK-8 kit); format: cell-based; conditions: all test concentrations (0.14-100 μM), 48 hours
[3] = test system: EBOV; conditions: intravenous 10 mg/kg per day for consecutive 12 days, treatment started three days after virus exposure; cited from earlier work

With `CCC(CC)COC(=O)[C@H](C)N[P@](=O)(OC[C@H]1O[C@@](C#N)(c2ccc3c(N)ncnn23)[C@H](O)[C@@H]1O)Oc1ccccc1` [Remdesivir, 2-ethylbutyl (2S)-2-[[[(2R,3S,4R,5R)-5-(4-aminopyrrolo[2,1-f][1,2,4]triazin-7-yl)-5-cyano-3,4-dihydroxyoxolan-2-yl]methoxy-phenoxyphosphoryl]amino]propanoate] the “Virus genome copy number” value ([1]; 0.14 μM) was 6120820311.5, the “Virus genome copy number” value ([1]; 0.41 μM) was 1751863138.5 and the “Virus genome copy number” value ([1]; 1.23 μM) was 879273650.5. The “Virus genome copy number” value ([1]; 3.70 μM) was 20287512.5, the “Virus genome copy number” value ([1]; 11.11 μM) was 16308516.5 and the “Virus genome copy number” value ([1]; 33.33 μM) was 12429732. The “Virus genome copy number” value ([1]; 100 μM) was 9010444.5, the “inhibition of the replication of the SARS-CoV-2 virus genome in the infected supernatant” value ([1]; concentrations of 100 μM, 33 μM, 11.1 μM and 3.7 μM) was “could effectively inhibit” and the “reduction of the viral nucleic acid load” value ([1]; drug concentration of 33 μM, 48 hours after infection, Vero E6) was “an order of magnitude”. The “viral nucleic acid load in cells infected by SARS-CoV-2” value ([1]; micromolar concentration level) was “can reduce the viral nucleic acid load”, the “cytotoxicity (toxic effect on the cells)” value [2] was “no cytotoxicity was observed; also recorded: no toxic effect” and the “EBOV-infected animals protected from death” value [3] was 100%. The “replication of EBOV” value [3] was “significantly inhibit”.
